Assay results taken from patent US20120225180A1, “SALTINESS-IMPROVING AGENT FOR SALTY FOOD AND DRINK” (priority 2009, published 2012).

Assay: Saltiness evaluation of shiokara (comparison evaluation of flavor by 10 panelists)
Type: in vivo
Details: for Evaluation A: the number of panelists who felt stimulation of saltiness / Evaluation B: the number of panelists who slightly felt stimulation of saltiness / Evaluation N: the number of panelists who judged that the stimulation of saltiness was reduced to mild saltiness / Flavor judgment: the number of panelists who judged it as most proper saltiness: 10 panelists
Description: Sedanenolide was added as a saltiness-improving agent (salty stimulation-reducing agent) of the present invention to commercially available salted squid to obtain shiokara containing sedanenolide at the concentrations shown in the following Table 1.
A: the number of panelists who felt stimulation of saltiness B: the number of panelists who slightly felt stimulation of saltiness N: the number of panelists who judged that the stimulation of saltiness was reduced to mild saltiness Flavor judgment: the number of panelists who judged it as most proper saltiness

[1] = shiokara containing 0.01 ppb sedanenolide
[2] = shiokara containing 0.01 ppm sedanenolide
[3] = shiokara containing 0.1 ppb sedanenolide
[4] = shiokara containing 0.1 ppm sedanenolide
[5] = shiokara containing 1 ppb sedanenolide
[6] = shiokara containing 1 ppm sedanenolide
[7] = shiokara containing 1 ppt sedanenolide
[8] = shiokara containing 10 ppm sedanenolide

CCCC[C@@H]1OC(=O)C2=C1CCC=C2 [sedanenolide]
saltiness improvement, overall result (amount of sedanenolide about 0.1 ppb to 1 ppm): particularly good results | improvement in stimulation of saltiness (low concentration of 0.01 ppb sedanenolide): some panelists felt some improvement in stimulation of saltiness | Evaluation A: the number of panelists who felt stimulation of saltiness [1]: 6 | Evaluation B: the number of panelists who slightly felt stimulation of saltiness [1]: 4 | Evaluation N: the number of panelists who judged that the stimulation of saltiness was reduced to mild saltiness [1]: 0 | Flavor judgment: the number of panelists who judged it as most proper saltiness [1]: 0 | stimulation of saltiness (shiokara containing 0.01 ppb to 10 ppm of sedanenolide): improved | Evaluation A: the number of panelists who felt stimulation of saltiness [2]: 2 | Evaluation B: the number of panelists who slightly felt stimulation of saltiness [2]: 2 | Evaluation N: the number of panelists who judged that the stimulation of saltiness was reduced to mild saltiness [2]: 6 | Flavor judgment: the number of panelists who judged it as most proper saltiness [2]: 3 | Evaluation A: the number of panelists who felt stimulation of saltiness [3]: 2 | Evaluation B: the number of panelists who slightly felt stimulation of saltiness [3]: 7 | Evaluation N: the number of panelists who judged that the stimulation of saltiness was reduced to mild saltiness [3]: 1 | Flavor judgment: the number of panelists who judged it as most proper saltiness [3]: 0 | Evaluation A: the number of panelists who felt stimulation of saltiness [4]: 1 | Evaluation B: the number of panelists who slightly felt stimulation of saltiness [4]: 2 | Evaluation N: the number of panelists who judged that the stimulation of saltiness was reduced to mild saltiness [4]: 7 | Flavor judgment: the number of panelists who judged it as most proper saltiness [4]: 4 | Evaluation A: the number of panelists who felt stimulation of saltiness [5]: 3 | Evaluation B: the number of panelists who slightly felt stimulation of saltiness [5]: 2 | Evaluation N: the number of panelists who judged that the stimulation of saltiness was reduced to mild saltiness [5]: 5 | Flavor judgment: the number of panelists who judged it as most proper saltiness [5]: 0 | Evaluation A: the number of panelists who felt stimulation of saltiness [6]: 0 | Evaluation B: the number of panelists who slightly felt stimulation of saltiness [6]: 1 | Evaluation N: the number of panelists who judged that the stimulation of saltiness was reduced to mild saltiness [6]: 9 | Flavor judgment: the number of panelists who judged it as most proper saltiness [6]: 2 | Evaluation A: the number of panelists who felt stimulation of saltiness [7]: 10 | Evaluation B: the number of panelists who slightly felt stimulation of saltiness [7]: 0 | Evaluation N: the number of panelists who judged that the stimulation of saltiness was reduced to mild saltiness [7]: 0 | Flavor judgment: the number of panelists who judged it as most proper saltiness [7]: 0 | Evaluation A: the number of panelists who felt stimulation of saltiness [8]: 0 | Evaluation B: the number of panelists who slightly felt stimulation of saltiness [8]: 1 | Evaluation N: the number of panelists who judged that the stimulation of saltiness was reduced to mild saltiness [8]: 9 | Flavor judgment: the number of panelists who judged it as most proper saltiness [8]: 1
